In patent US4430502A, “Pyridinyl substituted benzimidazoles and quinoxalines” (The Upjohn Company, priority 1982, dated 1984):

Biological target: T1, TXA2 synthetase (Homo sapiens, UniProt P24557)
T1 construct: human platelet microsomes (HPM); from tissue; host or cells: human platelet microsomes
T1 sequence (P24557 1-533): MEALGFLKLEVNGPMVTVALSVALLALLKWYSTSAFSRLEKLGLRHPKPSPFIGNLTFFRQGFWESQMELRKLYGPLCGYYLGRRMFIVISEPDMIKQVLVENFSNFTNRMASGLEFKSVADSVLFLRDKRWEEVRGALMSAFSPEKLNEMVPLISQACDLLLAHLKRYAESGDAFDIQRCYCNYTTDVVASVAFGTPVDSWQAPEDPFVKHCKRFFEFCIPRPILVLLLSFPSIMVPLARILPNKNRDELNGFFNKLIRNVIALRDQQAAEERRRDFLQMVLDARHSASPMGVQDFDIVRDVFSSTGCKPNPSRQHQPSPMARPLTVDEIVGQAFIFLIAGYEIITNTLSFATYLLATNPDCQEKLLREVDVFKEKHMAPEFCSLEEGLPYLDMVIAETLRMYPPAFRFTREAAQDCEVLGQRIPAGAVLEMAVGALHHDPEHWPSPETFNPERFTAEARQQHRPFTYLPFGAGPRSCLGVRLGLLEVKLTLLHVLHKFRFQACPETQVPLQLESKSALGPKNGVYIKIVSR
Assay: TXA2 inhibition test: TXA2 generated from PGH2 with human platelet microsomes, response of superfused rabbit aortic strips
Format: biochemical
Protocol: The compounds of the present invention were tested for TXA2 inhibition as follows:
Rabbit aortic strips were superfused in series with Krebs solution. Thromboxane A2 (TXA2) was generated by mixing prostaglandin H2 (PGH2) with human platelet microsomes (HPM).
Potential inhibitors were tested by comparing the response of the rabbit aorta to the amount of TXA2 produced by mixing PGH2 and HPM without the test compound in the reaction medium and then the amount of TXA2 produced when the test compound was added to the HPM 5 minutes before the HPM was mixed with PGH2. […] For a discussion of TXA2 synthetase inhibition testing see, e.g., R. Gorman, supra.

effectiveness in inhibiting TXA2 formation (compared with the other compounds tested in this test system): most effective
IC50 (test compound added to human platelet microsomes 5 minutes before mixing with PGH2, rabbit aorta response, read-out: approximate ED50 for inhibiting TXA2 formation (converted)): ~0.478 µM
SMILES: c1cncc(Cc2ccc3nc[nH]c3c2)c1 [Example 3, 5-(3-Pyridinylmethyl)benzimidazole]
